Test results as given in US20040197705A1, “Cyanide compound, optical filter, and optical recording material” (ASAHI DENKA CO., LTD., priority 2003, published 2004).

Columns and labels:
Type in all cases: physicochemical
[1] = Decomposition temperature in TG-DTA; conditions: 100 ml/min nitrogen stream; temperature rise 10° C./min
Method: Decomposition Temperature in TG-DTA (100 ml/min nitrogen stream; temperature rise: 10° C./min): 281° C.

[2] = Evaluation of solubility in methyl ethyl ketone (MEK); conditions: in methyl ethyl ketone (MEK) at 20° C.; % by weight; tested from 0.1 to 0.3% by 0.05%
Method: The test compound was added to MEK at 20° C. in an amount corresponding to a concentration varying from 0.1 to 0.3% by weight by 0.05% by weight to see whether it dissolved or not.

[3] = Absorption spectrum of optical filters containing the cyanine compound (λmax, half bandwidth); conditions: Example 3: PET-protected glass plate with dye-containing acrylic binder layer
Method: A binder composition having the above formulation was applied to a 188 μm thick PET film having been surface treated for adhesion improvement with a bar coater #9 and dried at 80° C. for 30 seconds. The PET film was hot bonded to a 0.9 mm thick alkali glass plate to prepare a PET-protected glass plate having a light absorbing dye-containing binder layer between the glass substrate and the PET film.

[4] = Evaluation of light resistance (absorption retention halving time); conditions: film spin coated on polycarbonate plate; light of 55000 lux; exposure time for absorption retention to decrease to 50%
Method: (§1) The test compound shown in Table 2 below was dissolved in a 1:1 (by volume) mixed solvent of MEK and 2,2,3,3-tetrafluoropropan-1-ol to prepare a 1 wt % solution. The solution was applied to a 20 mm×20 mm polycarbonate plate by spin coating at 2000 rpm for 60 seconds to prepare a specimen. The UV absorption spectrum of the specimen was determined. The specimen was then irradiated with light of 55000 lux, and the exposure time required for the absorption retention (as defined in Evaluation Example 2) to decrease to 50% was measured.

[5] = UV transmission and reflection spectra of spin-coated specimens (optical recording material); conditions: for Reflected Light Intensity at 650 nm: expressed relatively to that at λmax; for Reflected Light Intensity at 650 nm / Reflected Light λmax: incidence angle 5°; for Reflected Light λmax: specimen as in Evaluation Example 3; for Transmitted Light λmax: specimen spin coated on polycarbonate plate as in Evaluation Example 3
Method: as §1
Specimens were prepared in the same manner as in Evaluation Example 3. The UV transmission spectrum and the UV reflection spectrum (incidence angle: 5°) of the specimens were measured. In Table 4, the reflected light intensity at 650 nm is expressed relatively to that at λmax.

SMILES	Decomposition Temperature in TG-DTA [1] [°C]	Solubility: insoluble at [2]	Solubility: soluble at [2]	Half Bandwidth [3] [nm]	λmax [3] [nm]	Absorption Retention Halving Time [4] [h]	Reflected Light Intensity at 650 nm [5] [%]	Reflected Light λmax [5] [nm]	Transmitted Light λmax [5] [nm]
Cn1cc(C2=C([O-])/C(=C/C3=[N+](C)c4ccc5ccccc5c4C34CCCCC4)C2=O)c2ccccc21 [Compound No. 4]	259	< 0.2%	≥ 0.15%						
Cc1[nH]c2ccc(F)cc2c1C1=C([O-])/C(=C/C2=[N+](C)c3ccccc3C2(C)C)C1=O [Compound No. 22]	295			33	590				
Cc1c(C2=C([O-])/C(=C/C3=[N+](C)c4ccccc4C3(C)C)C2=O)c2cc([N+](=O)[O-])ccc2n1CCC(C)C [Compound No. 23]				36	597				
Cc1c(C2=C([O-])/C(=C/C3=[N+](C)c4ccccc4C3(C)C)C2=O)c2ccccc2n1C [Compound No. 14]	287		soluble at 0.3%	30	602				
CC1=[N+](C)c2ccccc2/C1=C1/C(=O)C(c2c(C)n(C)c3ccccc23)=C1[O-] [Comp. Compound 1, reference compound]		insoluble at 0.1%							
Cn1c(-c2ccccc2)c(C2=C([O-])/C(=C/C3=[N+](C)c4ccccc4C3(C)C)C2=O)c2ccccc21 [Compound No. 26]	273		soluble at 0.3%	34	606				
CCCCn1c(C)c(C2=C([O-])/C(=C3/C(C)=[N+](CCCC)c4ccccc43)C2=O)c2ccccc21 [Comp. Compound 2, reference compound]		insoluble at 0.1%							
CC(C)CCn1cc(C2=C([O-])/C(=C/C3=[N+](C)c4ccccc4C3(C)C)C2=O)c2ccccc21 [Compound No. 3]						26	100	651	608
CC(C)CC[N+]1=C(/C=C2\C(=O)C(c3cn(C)c4ccccc34)=C2[O-])C(C)(C)c2ccccc21 [Compound No. 5]	271		soluble at 0.3%	29	587	38	95.9	656	611
